{
  "source": "patent US11944685B2",
  "about": "“Preparation method and application of novel injection abiraterone derivative” (TIANJIN HAIRUNJIAHE INNOVATIVE PHARMACEUTICAL RESEARCH …, priority 2021, dated 2024)",
  "key": {"[1]": {"assay": "Organ indexes and body weights of prostate cancer LNCaP tumor-bearing mice", "type": "in vivo, nude mice", "details": "28 days; for body weights of the mice: vs normal group", "protocol": "A normal group (Normal) was not given any treatment; a model group (NS) received a daily injection of an equal volume of physiological saline; an AA group (150 mg/kg/d p.o.) was administrated intragastrically, once daily; and an AA-DTPA group (35 mg/kg/w i.v.) and an AA-DTPA group (52.5 mg/kg/w i.v.) were administrated from tail veins once weekly.\nDiameters of the xenograft tumors of the nude mice were measured with vernier calipers, and the anti-tumor effect of the Abiraterone was dynamically observed.\nTwo days following the last administration, the mice were sacrificed, and hearts, livers, spleens, lungs, kidneys, and testes were dissected off and weighed, and organ indexes [organ index=organ weight/(body weight−tumor weight), unit: mg/g] were calculated."}, "[2]": {"assay": "Toxicity study: blood routine, blood biochemistry and tissue pathology of healthy ICR male mice", "type": "in vivo", "details": "28 days", "protocol": "The influence of the polyaminopolycarboxylic acid modified Abiraterone derivative AA-DTPA prepared in Example 5 on blood routine, blood biochemistry and pathological tissues of ICR healthy male mice following administration for 28 days includes the following steps:\n20 ICR mice were selected, and were divided into 4 groups (NS group, positive control group AA 150 mg/kg/d p.o., and experimental groups AA-DTPA 35 mg/kg/w and 52.5 mg/kg/w i.v.), each of which had 5 mice.\nThe mice were administrated intragastrically once daily, and administrated intravenously, […], and blood was sampled for submission following the treatment for 28 days; all mice were sacrificed by cervical dislocation, hearts, livers, spleens, lungs, kidneys, and testes were dissected and collected, and fixed with 10% formaldehyde; and after being embedded by paraffin, the organs were sectioned, and histopathological examination was performed after HE staining (see FIG. 13 for results from blood routine experiments, FIG. 14 for results from blood biochemistry experiments, and FIG. 15 for results from histopathological experiments)."}, "[3]": {"assay": "Pharmacokinetic study in rats (plasma, LC-MS/MS)", "type": "in vivo, SD rats", "protocol": "Pharmacokinetics experiments of the polyaminopolycarboxylic acid modified abiraterone derivative AA-DTPA prepared in Example 2 in rats includes the following steps:\nA total of eight healthy male SD rats weighing 220+/−20 g were randomly divided into 2 groups, with 4 rats in each group; one group was administered with AA-DTPA from tail veins of the rats at a dose of 8 mg/kg in a volume of 0.2 ml/200 g rat; the other group was administrated intragastrically with AA at a dose of 30 mg/kg in a volume of 0.2 ml/200 g rat; blood samples were collected at time points of 5, 15, and 30 minutes, as well as 1, 2, 4, 6, 12, and 24 hours before and after administration for both groups; and at each time point, 0.5 ml of blood was sampled from canthi, and was placed in a heparinized plastic centrifuge tube, centrifugation was performed at 3000 r/min for 10 minutes, and plasma was separated therefrom.\n50 μl of rat plasma samples+5 μl of methanol ice (1:1, v/v)+150 μl of precipitant were taken, and fully whirled and shaken for 3 minutes, a mixture was then centrifuged at 4° and 12000 r/min for 10 minutes, and a supernatant was pipetted, and analyzed with sample injection by LC-MS/MS (liquid chromatography-tandem mass spectrometry)."}, "[4]": {"tested_on": "human prostate cancer cells (DU145)", "details": "2.5-160 μM, incubation 48 hours, CCK8; compared with Abiraterone AA", "protocol": "(§1) Cell survival rate tested by CCK8 method: after the solution was pipetted from the wells, each well was added with 10 μl of CCK8 reagent and 100 μl of serum-free medium for further culture for 4 hours. An absorbance value of each well at 450 nm was determined using a microplate reader."}, "[5]": {"tested_on": "human prostate cancer cells (LNCaP)", "details": "2.5-160 μM, incubation 48 hours, CCK8; compared with Abiraterone AA", "protocol": "as §1"}, "[6]": {"tested_on": "human prostate cancer LNCaP derived xenograft tumors", "assay": "Inhibition of growth of human prostate cancer LNCaP derived xenograft tumors of nude mice", "details": "for tumor inhibition effect compared with the AA group: 28 days; for tumor growth: treatment for 28 days"}, "[7]": {"details": "intragastric administration 30 mg/kg"}, "[8]": {"details": "healthy male ICR mice, 35 and 52.5 mg/kg/w i.v. vs AA 150 mg/kg/d p.o."}, "[9]": {"details": "healthy male ICR mice, 35 and 52.5 mg/kg/w i.v."}, "[10]": {"details": "intravenous injection (tail vein) 8 mg/kg"}},
  "data": [
    {"smiles": "C[C@]12CC[C@H](O)CC1=CC[C@@H]1[C@@H]2CC[C@]2(C)C(c3cccnc3)=CC[C@@H]12", "note": "[AA, Abiraterone]", "values": [
      {"measurement": "heart indexes", "setting": "[1]; 150 mg/kg/d p.o.", "value": "slight decline"},
      {"measurement": "indexes of livers, lungs and kidneys vs model group", "setting": "[1]; 150 mg/kg/d p.o.", "value": "no significant difference"},
      {"measurement": "testis indexes", "setting": "[1]; 150 mg/kg/d p.o., compared with normal group and model group", "value": "testicular atrophy and a sharp decrease in testis indexes"},
      {"measurement": "histopathology of hearts, spleens, kidneys and testes", "setting": "[2]; 150 mg/kg/d p.o., HE staining", "value": "no abnormal changes"},
      {"measurement": "histopathology of livers", "setting": "[2]; 150 mg/kg/d p.o., HE staining", "value": "mild pathological changes"},
      {"measurement": "histopathology of lungs", "setting": "[2]; 150 mg/kg/d p.o., HE staining", "value": "mild pathological changes"},
      {"measurement": "absorption in vivo", "setting": "[3]; [7]", "value": "absorbed slowly"},
      {"measurement": "peak value of AA concentration in blood plasma", "setting": "[3]; [7]", "value": "15.28 ± 1.24", "unit": "ng/mL"},
      {"measurement": "time to peak plasma concentration", "setting": "[3]; [7]", "value": 0.5, "unit": "h"},
      {"measurement": "half-life", "setting": "[3]; male, SD, rat, plasma, po, intragastric administration 30 mg/kg, read-out: half-life period (converted)", "value": 8.46, "unit": "h"}
    ]},
    {"smiles": "CC12CCC(OC(=O)CN(CCN(CCN(CCN(CC(=O)O)CC(=O)O)CC(=O)O)CC(=O)O)CC(=O)O)CC1=CCC1C2CCC2(C)C(c3cccnc3)=CCC12", "note": "(stereo not drawn) [AA-TTHA, triethylenetetramine hexaacetic acid modified Abiraterone derivative]", "values": [
      {"measurement": "in vitro anti-tumor effect (DU145), cell survival rate", "setting": "[4]", "value": "superior to the in vitro anti-tumor effect of Abiraterone AA"},
      {"measurement": "in vitro anti-tumor effect (LNCaP), cell survival rate", "setting": "[5]", "value": "superior to the in vitro anti-tumor effect of Abiraterone AA"}
    ]},
    {"smiles": "CC12CCC(OC(=O)CN(CCN(CCN(CC(=O)O)CC(=O)O)CC(=O)O)CC(=O)O)CC1=CCC1C2CCC2(C)C(c3cccnc3)=CCC12", "note": "(stereo not drawn) [AA-DTPA, diethylenetriaminepentaacetic acid modified Abiraterone derivative]", "values": [
      {"measurement": "in vitro anti-tumor effect (DU145), cell survival rate", "setting": "[4]", "value": "superior to the in vitro anti-tumor effect of Abiraterone AA"},
      {"measurement": "in vitro anti-tumor effect (LNCaP), cell survival rate", "setting": "[5]", "value": "superior to the in vitro anti-tumor effect of Abiraterone AA"},
      {"measurement": "body weights of the mice", "setting": "[1]; 35 mg/kg i.v. weekly", "value": "equivalent to those of the mice in the normal group"},
      {"measurement": "body weights of the mice", "setting": "[1]; 52.5 mg/kg i.v. weekly", "value": "equivalent to those of the mice in the normal group"},
      {"measurement": "indexes of hearts, livers, lungs, kidneys and testes vs model group", "setting": "[1]; AA-DTPA treatment group (35 and 52.5 mg/kg/w i.v.)", "value": "No significant difference"},
      {"measurement": "organ toxicity compared with AA under the treatment dose", "setting": "[1]; LNCaP tumor-bearing mice", "value": "lower than that of the AA"},
      {"measurement": "histopathology of lungs", "setting": "[2]; 52.5 mg/kg/w i.v., HE staining", "value": "mild pathological changes"},
      {"measurement": "organ toxicity (histopathology)", "setting": "[2]; 35 and 52.5 mg/kg/w i.v.", "value": "no obvious organ toxicity"},
      {"measurement": "histopathology of hearts, spleens, kidneys and testes", "setting": "[2]; 35 and 52.5 mg/kg/w i.v., HE staining", "value": "no abnormal changes"},
      {"measurement": "effect on alanine aminotransferase and aspartate aminotransferase compared with AA group", "setting": "[2]; [8]", "value": "less effect"},
      {"measurement": "effect on number of lymphocytes and monocytes compared with AA group", "setting": "[2]; [8]", "value": "less effect"},
      {"measurement": "effect on blood biochemistry", "setting": "[2]; [9]", "value": "less effect"},
      {"measurement": "effect on blood routine", "setting": "[2]; [9]", "value": "less effect"},
      {"measurement": "toxicity compared with AA", "setting": "[2]; healthy male ICR mice", "value": "less toxic than that of the AA"},
      {"measurement": "average clearance rate", "setting": "[3]; [10]", "value": 8.55, "unit": "mL/min/kg"},
      {"measurement": "half-life period", "setting": "[3]; [10]", "value": 0.26, "unit": "h"},
      {"measurement": "plasma concentration-time profile", "setting": "[3]; [10]", "value": "double exponential decay"},
      {"measurement": "tumor inhibition effect compared with the AA group", "setting": "[6]; 35 mg/kg/w i.v. vs AA 150 mg/kg/d p.o.", "value": "better tumor inhibition effects"},
      {"measurement": "tumor growth", "setting": "[6]; 35 mg/kg/w i.v.", "value": "significantly inhibited"},
      {"measurement": "tumor inhibition effect compared with the AA group", "setting": "[6]; 52.5 mg/kg/w i.v. vs AA 150 mg/kg/d p.o.", "value": "better tumor inhibition effects"},
      {"measurement": "tumor growth", "setting": "[6]; 52.5 mg/kg/w i.v.", "value": "significantly inhibited"}
    ]}
  ]
}
